One series concerns isolated erythrocyte. The note with it: in vitro; cited from earlier work.
For series [1], the system named is NPC-derived HLCs. In kind it is cell-based, human. The note with it: for cholesterol accumulation in NPC-HLCs (filipin staining): 1 mM hydroxypropyl-cyclodextrin, FIG. 18. The procedure:
For hepatocyte-like cell (HLC) induction, the culture medium of semi-confluent human iPS cells were switched from the iPS medium to the definitive endoderm differentiation medium containing RPMI1640 supplemented with 2% B27 (Life technologies), 100 ng/m1 Activin A and 1 mM Sodium butyrate (NaB, SIGMA). The NaB concentration is changed in 0.5 mM on day 2. On day 4, the cells were harvested and re-seeded onto Matrigel-coated dishes in hepatic differentiation medium containing DMEM supplemented with 20% KSR, 1 mM glutamine, 1 mM NEAA, 0.1 mM 2-mercaptoethanol (SIGMA), 1% Dimethyl sulfoxide (DMSO, SIGMA). CXCR4 expressions were examined by FACS on day 4. On day 11, the cells were harvested and re-cultured in the hepatic maturation medium containing L15 medium (SIGMA) supplemented with 8.3% FBS, 8.3% tryptose phosphate broth (SIGMA), 10 mM hydrocortisone 21-hemisuccinate (SIGMA), 1 mM insulin (SIGMA), 2 mM glutamine, lOng/ml Hepatocyte growth factor (HGF, R & D) and 20 ng/ml Oncostatin M (OSM, R & D). On day 18, the cells were used for various experiments. For the hydroxypropyl cyclodextrin treatments, HLCs were cultured with 0.1 mM or 1 mM of the hydroxypropyl cyclodextrins for four days. For Annexin and TUNEL stainings, HLCs are cultured for four days and a week from day 18, respectively.
(§1) Alkaline phosphatase staining was performed using the Leukocyte Alkaline Phosphatase kit (SIGMA). For immunocytochemistry, cells were fixed with PBS containing 4% paraformaldehyde for 30 min at 4° C. For the molecules localized in nucleus, samples were treated with 0.2% Triton X-100 for 15 min at room temperature (RT). The cells were washed three times with PBS containing 2% FBS and then incubated overnight at 4° C. in PBS containing 2% FBS with primary antibodies. Nucleuses were stained with Propidium Iodide (PI, WAKO, Japan) and 1 mg/ml Hoechst 33258 (Invitrogen). The list of the primary and secondary antibodies is described in Table 3. For Filipin staining, samples were washed with PBS three times after the fixing and incubated with PBS containing 1.5 mg/ml glycine for 10 min at RT. The samples were then treated with PBS containing 10% FBS and 50 mg/ml Filipin (SIGMA). The data was calculated by UV absorption (360/460) and analyzed with Developer Toolbox software of IN CELL ANALYZER 6000 (GE Healthcare). The number of insoluble p62 granules were counted by IN CELL ANALYZER 6000 (GE Healthcare). To investigate glycogen accumulation, Periodic acid Schiff (PAS) staining of hepatocyte-like cells were performed by PAS staining solution (Muto Pure chemicals, Tokyo, Japan), according to the manufacturer's protocol.
The inventors therefore treated the HLCs derived from normal and NPC-iPS cell lines with a series of 2-hydroxypropyl-cyclodextrins with different cavity sizes, and observed effect of a series of hydroxypropyl-cyclodextrins. HLCs were cultured with 1 mM of the indicated hydroxypropyl-cyclodextrin for 4 days, stained with filipin and analyzed with an IN CELL ANALYSER (GE Healthcare) (FIG. 18).
(§2) The size of HLCs is decreased by the treatments with HPBCD and HPGCD (data not shown). Effects of various concentration of HPBCD and HPGCD in NPC-derived HLCs was observes. HLCs were cultured with HPBCD or HPGCD for 4 days, stained with filipin and analyzed with an IN CELL ANALYSER (GE Healthcare).

The test system of series [2] is Npc1 gene-defective (Npc1−/−) mice. The note with it: cited from earlier work.
The test system of series [3] is NPC-derived HLCs. The class given is cell-based, human. The note with it: cells treated during HLC differentiation; FIG. 20.
A further series has as its system NPC1-defective cells. The note with it: reported; cited from earlier work.
In a further series the test system is LC3. The experiment in a line: Immunoblot of LC3 expression in HLCs. In kind it is cell-based, human. The note with it: 1 mM HPCD, 4 days; FIG. 22. On the procedure: (§3) Protein lysates were separated by SDS-PAGE and transferred to PVDF membrane. LC3-I and LCS3-II were detected by anti-LC3 antibody (Cell Signaling). The data are normalized to α-tubulin expression. The HLCs were solved in RIPA buffer and then insoluble p62 was collected as a pellet after the centrifuge of the samples.
(§4) HLCs were culture with 1 mM 2-hydroxypropylcyclodextrins (HPCDs) for 4 days, and ATP level, expression levels of LC3 and p62, and insoluble p62 granules were measured.

In series [4] the test system is NPC-derived HLCs. The experiment in a line: Measurement of ATP in HLCs. In kind it is cell-based, human. The following applies: 1 mM HPCD, 4 days; FIG. 21. The procedure:
Hepatocyte-like cells derived from the iPSC lines were cultured in DMEM medium in the absence of glucose for 24 hours and were then cultured in the DMEM medium containing 10% FBS and high glucose for 6 hours. ATP was measured by ATP measurement Kit (TOYO INK), according to the manufacturer's protocol.
as §4

For series [5], the system named is p62. The experiment in a line: Count of insoluble p62 granules in HLCs (IN CELL ANALYZER). The class given is cell-based, human. The following applies: 1 mM HPCD, 4 days; FIG. 24. On the procedure: as §1, with “To investigate glycogen accumulation, Periodic acid Schiff (PAS) staining of hepatocyte-like cells were performed by PAS staining solution (Muto Pure chemicals, Tokyo, Japan), according to the manufacturer's protocol.” left out
as §4

Series [6] has as its system NPC-derived HLCs. The experiment in a line: Cell size of HLCs. In kind it is cell-based, human. The following applies: data not shown. The procedure: The cell sizes of albumin-positive cells was calculated by Developer Toolbox software of IN CELL ANALYZER 6000 (GE Healthcare).
as §2

The test system of the next series is normal mice. The experiment in a line: Acute toxicity test in normal mice. In kind it is in vivo, mouse. The following applies: 14.4 mM, 19.18 ml/g subcutaneous, 8-week-old normal mice; FIG. 34. The procedure:
To confirm the excellent safety of HPGCD, acute toxicity was tested using normal mice. 14.4 mM HPBCD or HPGCD were injected in the amount of 19.18 ml/g into subcutaneous tissues of 8-week-old mice (n=10), and then survival rates were calculated.

For series [7], the system named is p62. The experiment in a line: Immunoblot of insoluble p62 in HLCs. In kind it is cell-based, human. The following applies: 1 mM HPCD, 4 days; FIG. 23. The procedure:
as §3, §4

The test system of another series is NPC child patients. The note with it: intravenous instillation 2500 mg/kg per time, 1 to 3 times per week, more than 1 year; cited from earlier work.
The test system of a further series is rats. The note with it: acute intravenous administration to rats; cited from earlier work.

As to 2-Hydroxypropyl-α-cyclodextrin [HPACD], the “hemolytic activity (order)” value in the series on isolated erythrocyte is recorded as “HPBCD>HPACD>HPGCD”. The “activity on hepatocyte-like cells differentiation-induced from NPC patient-derived iPS cells” value with NPC-derived HLCs [1] is recorded as “no activity at all”. The “cholesterol accumulation in NPC-HLCs (filipin staining)” value in the series on NPC-derived HLCs [1] (4 days) was “did not show any effect on cholesterol accumulation”.
`CC(O)COC[C@H]1O[C@@H]2O[C@H]3[C@H](O)[C@@H](O)[C@@H](O[C@H]4[C@H](O)[C@@H](O)[C@@H](O[C@H]5[C@H](O)[C@@H](O)[C@@H](O[C@H]6[C@H](O)[C@@H](O)[C@@H](O[C@H]7[C@H](O)[C@@H](O)[C@@H](O[C@H]8[C@H](O)[C@@H](O)[C@@H](O[C@H]1[C@H](O)[C@H]2O)O[C@@H]8COCC(C)O)O[C@@H]7COCC(C)O)O[C@@H]6COCC(C)O)O[C@@H]5COCC(C)O)O[C@@H]4COCC(C)O)O[C@@H]3COCC(C)O` (stereo partly drawn) [HPBCD, 2-hydroxypropyl-β-cyclodextrin]: the “improving effect compared with systemic administration” value in series [2] (directly administered into the brain) is reported as “increased a few hundreds times”. Moreover, the “medical state or survival” value in [2] (intravenous administration) is given as “effective in improving the medical state or prolonging survival”. Also, in the series with NPC-derived HLCs [3], the “free cholesterol accumulation, treatment during HLC differentiation” value is “effective at the intermediate stages in hepatic differentiation”. Further, the “hemolytic activity (order)” value in the series with isolated erythrocyte is listed as “HPBCD>HPACD>HPGCD”. In the series with NPC1-defective cells, the “cholesterol accumulation in NPC1-defective cells” value was “effective for reducing of cholesterol accumulation”. The “expression level of LC3” value with LC3 is “recovered to normal levels”. Further, the ATP level entry with NPC-derived HLCs [4] is “recovered”. For the same compound, the “proportion of HLCs carrying more than 40 granules of insoluble p62 aggregation” value with p62 [5] is recorded as “greatly reduced”. Moreover, the “size of HLCs” value with NPC-derived HLCs [6] is on record as “decreased”. Besides, the “survival after injection (acute toxicity)” value with normal mice is on record as “Almost all mice injected with HPBCD dies up to 72 hours after injection”. For the same compound, the “amount of insoluble p62” value in the series with p62 [7] is on record as “reduced the amount of insoluble p62”. Moreover, in the series on NPC child patients, the nervous symptom entry is “has not been improved yet”; the “splenohepatomegaly and brain wave” value is “certain effect of reduction of splenohepatomegaly and improvement in a brain wave”. In the series with NPC-derived HLCs [1], the “cholesterol accumulated in hepatocyte-like cells derived from NPC” value was “removed cholesterol accumulated in hepatocyte-like cells derived from NPC” and the “function of the hepatocyte-like cells” value was “recovered the function of the hepatocyte-like cells”. Besides, the “cholesterol accumulation in NPC-HLCs (filipin staining)” value in the series on NPC-derived HLCs [1] (4 days) was “significantly decreased”. The “cholesterol accumulation in NPC-derived HLCs (filipin staining)” value in the series with NPC-derived HLCs [1] (low concentration 100 μM, 4 days, FIG. 19) is reported as “ineffective for reducing cholesterol accumulation”.
For `OC[C@H]1O[C@@H]2O[C@H]3[C@H](O)[C@@H](O)[C@@H](O[C@H]4[C@H](O)[C@@H](O)[C@@H](O[C@H]5[C@H](O)[C@@H](O)[C@@H](O[C@H]6[C@H](O)[C@@H](O)[C@@H](O[C@H]7[C@H](O)[C@@H](O)[C@@H](O[C@H]1[C@H](O)[C@H]2O)O[C@@H]7CO)O[C@@H]6CO)O[C@@H]5CO)O[C@@H]4CO)O[C@@H]3CO` [α-cyclodextrin], the “intravenous dose showing lethality to 50% of population (LD50 value)” value in the series on rats was 1000 mg/kg.
As for `OC[C@H]1O[C@@H]2O[C@H]3[C@H](O)[C@@H](O)[C@@H](O[C@H]4[C@H](O)[C@@H](O)[C@@H](O[C@H]5[C@H](O)[C@@H](O)[C@@H](O[C@H]6[C@H](O)[C@@H](O)[C@@H](O[C@H]7[C@H](O)[C@@H](O)[C@@H](O[C@H]8[C@H](O)[C@@H](O)[C@@H](O[C@H]1[C@H](O)[C@H]2O)O[C@@H]8CO)O[C@@H]7CO)O[C@@H]6CO)O[C@@H]5CO)O[C@@H]4CO)O[C@@H]3CO` [β-cyclodextrin], the “intravenous dose showing lethality to 50% of population (LD50 value)” value with rats was 788 mg/kg.
For the compound `OC[C@H]1O[C@@H]2O[C@H]3[C@H](O)[C@@H](O)[C@@H](O[C@H]4[C@H](O)[C@@H](O)[C@@H](O[C@H]5[C@H](O)[C@@H](O)[C@@H](O[C@H]6[C@H](O)[C@@H](O)[C@@H](O[C@H]7[C@H](O)[C@@H](O)[C@@H](O[C@H]8[C@H](O)[C@@H](O)[C@@H](O[C@H]9[C@H](O)[C@@H](O)[C@@H](O[C@H]1[C@H](O)[C@H]2O)O[C@@H]9CO)O[C@@H]8CO)O[C@@H]7CO)O[C@@H]6CO)O[C@@H]5CO)O[C@@H]4CO)O[C@@H]3CO` [γ-cyclodextrin], the “intravenous dose showing lethality to 50% of population (LD50 value)” value with rats is above 3750 mg/kg.

Values taken from patent publication US10588921B2, “Drug for the treatment of cholesterol accumulation disorders” (NATIONAL UNIVERSITY CORPORATION KUMAMOTO UNIVERSITY, priority 2013, dated 2020).
